Measurements taken from patent US20110144209A1, “USE OF VASOCONSTRICTORS” (priority 2008, published 2011).

Legend:
[1] = humans, 1.5 mg/kg, cited from earlier work
[2] = system: humans; details: cited from earlier work
[3] = system: rhesus monkeys; details: cited from earlier work
[4] = system: Sprague Dawley albino rats; assay: Anesthesia-induced hypothermia in rats, topical norepinephrine cream on tail, feet and ears (Example 2); format: in vivo, rat
Protocol: This experiment was similar to the experiment of Example 1, although Sprague Dawley albino rats were used. […] The test cream composition was 10% Norepinephrine vasoactive substance, 10% penetration enhancer (propylene glycol), and 80% conventional base cream.
All rats were subjected to one hour pre-anesthesia time (t=−60 to t=0), one hour anesthesia (t=0 to t=60), and 4 hours post anesthesia (t=60 to t=300). The appropriate cream was applied to the tail, feet, and ears skin surface of each rat. There were four rats in each test/control group. Vasoconstrictor cream was applied to the test group rats 3 times, at t=−60, t=−30, and t=0 min before anesthesia. Core body temperature was measured rectally. Rat tail skin temperature was measured at around the mid-length of the tail by press touching the thermometer tip to the skin surface.

[5] = system: AVA; details: Pollock et al. 1996; cited from earlier work
[6] = system: porcine carotid arteriovenous anastomoses; details: porcine (De Vries et al. 1998); cited from earlier work
[7] = system: Male Wistar rats
Source text: Although there are differences between the thermoregulatory system of rats and humans, the tails and feet pads of rats function as thermoregulatory organs in a similar fashion to human skin. The rat tail skin and feet pads are exposed and not covered by fur. By controlling the blood flow to the tail skin and feet pads, the rat controls some of its heat dissipation to the environment. Only about 30% of the rat heat loss is regulated by the tail—much less than the role of the skin in humans.
Male Wistar rats, each about 400 g mass, were divided into three groups: a control group (C) of 8 rats, a test first group (A) of 7 rats, and a third test group (B) of 5 rats. All rats had test composition applied to the tail skin and the feet pads. All experiments were conducted at 23° C. ambient room temperature. All groups went though an anesthesia period of one hour (t=0 is time of start of anesthesia), and a follow-up period of 3 hours after end of anesthesia. Core body temperature (CBT) and tail skin temperature of the rats was measured using a thermocouple-based digital thermometer with 0.1° C. sensitivity.
For test group A, the cream was identical to that used for the control group, except it contained 6 wt. % epinephrine, a vasoconstrictor. The cream for test group B was the same as that for group A, except that the cream contained 20 wt. % penetration enhancer.
The cream on both control group C and test group A was applied at two times: first, concomitantly with application of anesthesia (t=0), and again at 20 min into anesthesia (t=20 m=⅓ h). CBT and tail temperatures were measured at t=0, 20, 40, 60, 120, 180 and 240 minutes.
In test group (B), two changes were made to the experimental procedure. First, the concentration of penetration enhancer (propylene glycol) in the cream was doubled to 20 wt. %. Second, the time of first cream application was done at 30 min before anesthesia (t=−30 min) and the second cream application was given with initiation of administration of anesthetic (t=0).

[8] = system: pigs; details: 6 wt.% epinephrine, 10 wt.% propylene glycol cream at t=-40 min and t=0; after 130 minutes; room 20° C.
Protocol: The same composition, but without the epinephrine, was prepared for use as a control. Five pigs, each weighing 55-65 kg, were divided into two groups, three in the experimental group and two in the control group. The cream was administered 40 minutes before the onset of anesthesia (t=−40 min) and again with the commencement of general anesthesia (t=0). The room temperature was 20° C., with +/−1° C. fluctuations due to the thermostat of the air conditioner. The pigs were not covered with anything other than the cream, with which there were covered over their entire skin surface. Core body temperature was measured at t=−40, 0, 30, 50, 70, 100 and 130 min.

[9] = cited from earlier work
[10] = system: adult male Wistar rat; details: injection into the preoptic area of rat brain; cited from earlier work
[11] = group B: 6 wt.% epinephrine, 20 wt.% propylene glycol

CNC(C)Cc1ccc2c(c1)OCO2 (centres unmarked) [MDMA, 3,4-methylenedioxymethamphetamine]
time of peak plasma concentration after oral administration [1]: about two
peak plasma concentration (average) ([1]; oral): 0.331 ng/mL
hyperthermic response ([2]; humans, all doses tested (up to 2.0 mg/kg), laboratory conditions (Liechti 2000)): little or no hyperthermic response
effect on core body temperature at different ambient temperatures ([2]; recreational users, single exposure (Freedman et al. 2005)): produced hyperthermia regardless of ambient temperature
time to flat peak of thermoregulatory disruption effect ([3]; monkeys, after intravenous injection): about 90 minutes
duration of flat peak of thermoregulatory disruption effect ([3]; monkeys, intravenous injection): about 3 hours
hyperthermic rise compared to control ([3]; rhesus monkeys, ambient temperature up to 31° C. (Banks et al. 2007)): ≤ 1 °C

NC[C@H](O)c1ccc(O)c(O)c1 [Norepinephrine, Norepinephrine Bitartrate]
start of difference in core body temperature, time into anesthesia ([4]; 10% norepinephrine cream): about 20 min
reversal of core and tail temperatures versus control ([4]; 10% norepinephrine cream, at about 90 min post anesthesia): the control group temperature goes above the test group temperature
start of pronounced vasoconstrictor action after first application of cream ([4]; 10% norepinephrine cream, from skin and core temperature): about 80 min
test group core body temperature higher than control group ([4]; 10% norepinephrine, 10% propylene glycol cream applied t=-60, -30, 0 min, remaining anesthesia period and 60 min post anesthesia): 1-1.5 °C
effect on AVA [5]: produced AVA vasoconstriction

Brc1c(NC2=NCCN2)ccc2nccnc12 [UK-14304, 5-bromo-N-(4,5-dihydro-1H-imidazol-2-yl)-6-quinoxalinamine]
effect on AVA [5]: produced constriction of the AVA

c1ccc2c(c1)CC[C@H](CNCCCNC1=NCCCN1)O2 [alniditan]
constriction of carotid arteriovenous anastomoses [6]: potently constrict

CNC[C@H](O)c1ccc(O)c(O)c1 [epinephrine]
response time of vasoconstrictor action ([7]; 6% Epinephrine cream of Example 1): 20 to 30 min
duration of effect of vasoconstrictor application on CBT after anesthesia ([7]; group A: 6 wt.% epinephrine, 10 wt.% propylene glycol): at least 3 hours
tail temperature versus control group ([7]; group A: 6 wt.% epinephrine, 10 wt.% propylene glycol, 20 minutes into the experiment): higher in the control group than in group A
difference in CBT between test and control group ([7]; group A: 6 wt.% epinephrine, 10 wt.% propylene glycol, after 40 minutes through the remainder of the experiment (240 min)): one
difference in CBT between groups A and C ([7]; group A: cream with 6 wt.% epinephrine, 10 wt.% propylene glycol, applied t=0 and 20 min, first 40 minutes, 23° C. ambient): no significant difference
time after which test group temperature rapidly falls off [7, 11]: 2 h
time from anesthesia within which the CBT difference is established [7, 11]: ≤ 20 min
difference in CBT versus control group C ([7]; group B: 6 wt.% epinephrine, 20 wt.% propylene glycol, applied t=-30 min and t=0, maintained throughout anesthesia (t=60 m)): 2 °C
average decrease in CBT [8]: 0.7 °C
time after which activity diminishes significantly ([9]; topical): 3 h
time to initial vasoconstrictor action after application ([9]; topical): ≤ 20 min

COc1ccc(OC)c(C(O)C(C)N)c1 (centres unmarked) [methoxamine]
effect on body temperature [10]: resulted in hypothermia

CNC[C@H](O)c1cccc(O)c1 [phenylephrine]
effect on AVA [5]: produced AVA constriction
time after application at which vasoconstricting effect begins ([9]; topical / dermal): about 3 hours

CNS(=O)(=O)Cc1ccc2[nH]cc(CCN(C)C)c2c1 [sumatriptan]
constriction of carotid arteriovenous anastomoses [6]: potently constrict
